Measured values taken from ChEMBL document CHEMBL1909046, “DrugMatrix in vitro pharmacology data”.
pIC50: −log10 of the molar value.

What was measured:
[1] = molecular target: cGMP-specific 3',5'-cyclic phosphodiesterase (Homo sapiens, UniProt O76074); assay: DRUGMATRIX: Phosphodiesterase PDE5 enzyme inhibition (substrate: [3H]cGMP + cGMP); format: tissue-based, Platelet; settings: platelet; Not Active = under 50% inhibition at 10 µM
[2] = molecular target: Mitogen-activated protein kinase 1 (Homo sapiens, UniProt P28482); assay: DRUGMATRIX: Protein Serine/Threonine Kinase, ERK2 enzyme inhibition (substrate: Myelin Basic Protein); set-up: species or system Escherichia coli; settings: Not Active = under 50% inhibition at 10 µM
[3] = DRUGMATRIX: GABAA, Muscimol, Central radioligand binding (ligand: [3H] Muscimol); format: cell membranes, Rattus norvegicus, Wistar, Brain, Membrane; settings: Not Active = under 50% inhibition at 10 µM
[4] = DRUGMATRIX: Glutamate, NMDA, Phencyclidine radioligand binding (ligand: [3H] TCP); format: cell membranes, Rattus norvegicus, Wistar, Cerebral cortex, Membrane; settings: Not Active = under 50% inhibition at 10 µM
[5] = molecular target: T1, Cysteinyl leukotriene receptor 1 (Homo sapiens, UniProt Q9Y271); format: cell membranes, Membrane; settings: cho-k1; also: in other assays of this panel Not Active means under 50% inhibition at 10 µM
T1 sequence (Q9Y271 whole entry): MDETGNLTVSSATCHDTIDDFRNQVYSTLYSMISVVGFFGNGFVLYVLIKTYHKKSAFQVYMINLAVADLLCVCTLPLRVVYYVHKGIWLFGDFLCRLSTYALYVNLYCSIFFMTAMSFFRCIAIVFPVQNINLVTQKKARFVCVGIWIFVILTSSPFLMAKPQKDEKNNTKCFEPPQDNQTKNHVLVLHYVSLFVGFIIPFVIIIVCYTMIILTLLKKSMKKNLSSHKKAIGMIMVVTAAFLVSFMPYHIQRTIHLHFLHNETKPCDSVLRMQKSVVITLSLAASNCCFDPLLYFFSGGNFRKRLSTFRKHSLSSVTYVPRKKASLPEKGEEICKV

[6] = DRUGMATRIX: Glutamate, Kainate radioligand binding (ligand: [3H] Kainic acid); format: cell membranes, Rattus norvegicus, Wistar, Brain, Membrane; settings: Not Active = under 50% inhibition at 10 µM
[7] = molecular target: Tyrosine-protein kinase Fyn (Homo sapiens, UniProt P06241); assay: biochemical; format: cell-based, Insect cells; settings: for IC50: insect cells;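 as to all read-outs here: enzymatic inhibition of Fyn kinase activity measured with Poly(Glu:Tyr) as the phosphorylation substrate; in other assays of this panel Not Active means under 50% inhibition at 10 µM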
Cytochrome P450 2C9 = Cytochrome P450 2C9 (Homo sapiens, UniProt P11712); settings: bti-tn-5b1-4; also: in other assays of this panel Not Active means under 50% inhibition at 10 µM
Sequence of Cytochrome P450 2C9 (P11712 whole entry): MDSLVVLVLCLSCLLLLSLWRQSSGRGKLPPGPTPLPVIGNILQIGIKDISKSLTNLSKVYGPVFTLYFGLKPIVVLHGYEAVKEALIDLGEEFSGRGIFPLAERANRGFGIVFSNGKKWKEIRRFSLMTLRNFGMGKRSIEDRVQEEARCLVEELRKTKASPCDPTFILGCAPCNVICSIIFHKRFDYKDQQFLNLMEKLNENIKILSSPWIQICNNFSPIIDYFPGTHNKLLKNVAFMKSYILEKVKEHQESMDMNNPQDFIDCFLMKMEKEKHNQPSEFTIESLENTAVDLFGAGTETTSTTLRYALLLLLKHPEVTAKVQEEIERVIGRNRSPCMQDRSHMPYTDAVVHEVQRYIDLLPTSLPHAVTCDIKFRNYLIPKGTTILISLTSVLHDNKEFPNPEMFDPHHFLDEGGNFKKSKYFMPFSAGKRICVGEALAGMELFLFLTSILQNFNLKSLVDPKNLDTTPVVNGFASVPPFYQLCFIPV

Sequence of Mitogen-activated protein kinase 1 (P28482 whole entry): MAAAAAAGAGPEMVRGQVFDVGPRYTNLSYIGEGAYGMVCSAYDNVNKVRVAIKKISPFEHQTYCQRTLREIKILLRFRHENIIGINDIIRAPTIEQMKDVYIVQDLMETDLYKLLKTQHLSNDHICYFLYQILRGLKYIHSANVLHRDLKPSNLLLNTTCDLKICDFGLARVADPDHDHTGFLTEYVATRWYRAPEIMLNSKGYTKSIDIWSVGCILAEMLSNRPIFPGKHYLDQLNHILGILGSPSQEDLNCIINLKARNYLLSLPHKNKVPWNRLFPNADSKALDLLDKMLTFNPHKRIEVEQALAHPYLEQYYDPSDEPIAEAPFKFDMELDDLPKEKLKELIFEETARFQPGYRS
Sequence of Tyrosine-protein kinase Fyn (P06241 whole entry): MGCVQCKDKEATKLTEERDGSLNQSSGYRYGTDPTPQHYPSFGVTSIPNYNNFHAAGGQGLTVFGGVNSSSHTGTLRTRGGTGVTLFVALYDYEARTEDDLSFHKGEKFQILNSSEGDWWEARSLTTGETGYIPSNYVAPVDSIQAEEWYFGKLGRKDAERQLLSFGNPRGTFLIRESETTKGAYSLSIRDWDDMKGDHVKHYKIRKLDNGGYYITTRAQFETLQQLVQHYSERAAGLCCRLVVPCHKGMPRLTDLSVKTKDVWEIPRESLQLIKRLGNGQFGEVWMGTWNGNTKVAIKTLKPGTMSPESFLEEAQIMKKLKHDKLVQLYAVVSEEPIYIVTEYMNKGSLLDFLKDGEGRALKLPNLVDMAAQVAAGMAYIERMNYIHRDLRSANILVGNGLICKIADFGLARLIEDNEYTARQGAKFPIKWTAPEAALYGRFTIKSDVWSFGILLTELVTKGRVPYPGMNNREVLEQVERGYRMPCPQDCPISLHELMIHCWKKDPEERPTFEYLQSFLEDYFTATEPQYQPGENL

Row | SMILES | IC50 [1] | IC50 [2] | IC50 [3] | Ki [3] | IC50 [4] | Ki [4] | IC50 [5] | IC50 [6] | Ki [6] | IC50 [7] | IC50 (Cytochrome P450 2C9) | Ki (Cytochrome P450 2C9) | pIC50 ([7]; read-out: IC50)
1 | CC(=O)Oc1ccccc1C(=O)O [ASPIRIN] | Not Active | Not Active | Not Active | Not Active | Not Active | Not Active | Not Active | Not Active | Not Active | Not Active | Not Active | Not Active | 
2 | O=c1[nH]c(=O)n([C@H]2C[C@H](O)[C@@H](CO)O2)cc1F [FLOXURIDINE] | Not Active | Not Active | Not Active | Not Active | Not Active | Not Active | Not Active | Not Active | Not Active | Not Active | Not Active | Not Active | 
3 | O=C(O)CC(O)(CC(=O)O)C(=O)O [CITRIC ACID] | Not Active | Not Active | Not Active | Not Active | Not Active | Not Active | Not Active | Not Active | Not Active | Not Active | Not Active | Not Active | 
4 | CCCCC1=NC2(CCCC2)C(=O)N1Cc1ccc(-c2ccccc2-c2nnn[nH]2)cc1 [IRBESARTAN] | Not Active | Not Active | Not Active | Not Active | Not Active | Not Active | Not Active | Not Active | Not Active | Not Active | Not Active | Not Active | 
5 | O=c1c(-c2ccc(O)cc2)coc2cc(O)cc(O)c12 [GENISTEIN] | Not Active | Not Active | Not Active | Not Active | Not Active | Not Active | Not Active | Not Active | Not Active | Not Active | Not Active | Not Active | 
6 | CN(C)C(=N)NC(=N)N [METFORMIN] | Not Active | Not Active | Not Active | Not Active | Not Active | Not Active | Not Active | Not Active | Not Active | Not Active | Not Active | Not Active | 
7 | C[C@H]1O[C@H](O[C@H]2[C@H](O)[C@@H](O)[C@@H](O[C@H]3[C@H](O)[C@@H](O)C(O)O[C@@H]3CO)O[C@@H]2CO)[C@H](O)[C@@H](O)[C@@H]1N[C@H]1C=C(CO)[C@@H](O)[C@H](O)[C@H]1O (stereo not given in full) [ACARBOSE] | Not Active | Not Active | Not Active | Not Active | Not Active | Not Active | Not Active | Not Active | Not Active | Not Active | Not Active | Not Active | 
8 | COc1ccccc1N | Not Active | Not Active | Not Active | Not Active | Not Active | Not Active | Not Active | Not Active | Not Active | Not Active | Not Active | Not Active | 
9 | CC(O)COC[C@H]1O[C@@H]2O[C@H]3[C@H](O)[C@@H](O)[C@@H](O[C@H]4[C@H](O)[C@@H](O)[C@@H](O[C@H]5[C@H](O)[C@@H](O)[C@@H](O[C@H]6[C@H](O)[C@@H](O)[C@@H](O[C@H]7[C@H](O)[C@@H](O)[C@@H](O[C@H]8[C@H](O)[C@@H](O)[C@@H](O[C@H]1[C@H](O)[C@H]2O)O[C@@H]8COCC(C)O)O[C@@H]7COCC(C)O)O[C@@H]6COCC(C)O)O[C@@H]5COCC(C)O)O[C@@H]4COCC(C)O)O[C@@H]3COCC(C)O (stereo partly drawn) [2-HYDROXYPROPYL-BETA-CYCLODEXTRIN] | Not Active | Not Active | Not Active | Not Active | Not Active | Not Active | Not Active | Not Active | Not Active |  | Not Active | Not Active | 5.52
10 | CS(=O)(=O)Nc1ccc([N+](=O)[O-])cc1Oc1ccccc1 [NIMESULIDE] | Not Active | Not Active | Not Active | Not Active | Not Active | Not Active | Not Active | Not Active | Not Active | Not Active | Not Active | Not Active | 
11 | C[N+](C)(C)C[C@H](O)CC(=O)[O-] [LEVOCARNITINE] | Not Active | Not Active | Not Active | Not Active | Not Active | Not Active | Not Active | Not Active | Not Active | Not Active | Not Active | Not Active | 
12 | O=C(O)c1cc(-c2ccc(F)cc2F)ccc1O [DIFLUNISAL] | Not Active | Not Active | Not Active | Not Active | Not Active | Not Active | Not Active | Not Active | Not Active | Not Active | Not Active | Not Active | 
13 | CN1CCN(C(c2ccccc2)c2ccccc2)CC1 [CYCLIZINE] | Not Active | Not Active | Not Active | Not Active | Not Active | Not Active | Not Active | Not Active | Not Active | Not Active | Not Active | Not Active | 
14 | CCCNC(=O)NS(=O)(=O)c1ccc(Cl)cc1 [CHLORPROPAMIDE] | Not Active | Not Active | Not Active | Not Active | Not Active | Not Active | Not Active | Not Active | Not Active | Not Active | Not Active | Not Active | 
15 | Nc1cc(-c2ccncc2)c[nH]c1=O [INAMRINONE] | Not Active | Not Active | Not Active | Not Active | Not Active | Not Active | Not Active | Not Active | Not Active | Not Active | Not Active | Not Active | 
